Experimental data as given in patent publication EP4751721A1, “COMPOSITION CONTAINING NOVEL COMPOUND FOR PREVENTING OR TREATING PARKINSON'S DISEASE” (PRG S&Tech Inc., priority 2023, dated 2025).

Tests used:
Syn-A53T = biological target: T1, Syn-A53T (Homo sapiens, UniProt P37840, A53T); test: Immunofluorescence staining of aggregated synuclein in transfected cells; assay type: cell-based; settings: Syn-A53T vector 24 h, compound 5 µM for 24 h, pan-Syn antibody, FIG. 1C
T1 construct: FLAG; host or cells: SK-N-SH

normal human fibroblasts = test: Cell viability (MTT assay) in normal human fibroblasts; assay type: cell-based; settings: 48 h; for cytotoxic effects (cell viability, MTT): normal human fibroblasts, FIG. 3
Method: SK-N-SH cells were purchased from the Korean Cell Line Bank (KCLB, Seoul, South Korea) and maintained in MEM medium containing 10% fetal bovine serum, 1% antibiotics, 25 mM HEPES, and 300 mg/L L-Glu. Human fibroblasts (person) were obtained from Coridll Cell Repositories (New Jersey, USA) and maintained in EMEM containing 15% FBS and 2 mM glutamine, along with 26 mM HEPES without antibiotics.
To investigate cell viability, cells were treated with chemicals (PRG-A compound) for 48 h. Then, the cells were incubated with 0.5 mg/ml 3-(4,5-dimethylthiazol-2-yl)-2,5-diphenyltetrazolium bromide (MTT) solution (475989; Merck, Darmstadt, Germany) at 37°C for 4 h. After removing the excess solution and washing with PBS, the precipitated substances were dissolved in 200 µl of DMSO and quantified by measuring the absorbance at 540 nm.
Lastly, to determine the toxicity of PRG-A compounds, normal human fibroblasts and neuroblastoma cells (SK-N-SH) were cultured with each compound for 48 h, and cell viability was measured via the MTT assay. The effect on survival rates of neuronal cells and normal fibroblasts was identified (FIG. 3).

Syn^A53T-Tg mice = test: In vivo treatment and histological analysis in Parkinson's disease (PD) mouse model
Method: Experiments were conducted in approved facility of Association for Assessment and Accreditation of Laboratory Animal Care in accordance with animal policies approved by Pusan National University. B6.Cg-Tg (Prnp-SNCAA53T)/J mice were obtained from Jackson Laboratory (Stock No: 006823). All mice were maintained under temperature- and light-controlled conditions (20-23°C, 12 h-12 h light/dark cycle) and provided with autoclaved food and water.
24 week-old Syn^A53T-Tg mice were administered vehicle (DMSO), PRG-A-03, and PRG-A-04 intraperitoneally twice a week for 24 to 26 weeks. Control mice were treated under the same conditions. Mice were sacrificed at 48-52 weeks of age for histological analysis. After cardiac perfusion with 4% paraformaldehyde, the brains were dissected and embedded in paraffin blocks according to standard tissue processing procedures. Embedded tissue ([…]) was cut into 5 µm sections using a tissue sectioner (Leica microtome) and transferred to adhesive-coated slides (Marienfeld laboratory glassware, Germany). For histological pathologic analysis of Syn^A53T-Tg mice, immunohistochemistry (IHC) using a dopaminergic neuronal marker (Tyrosine Hydroxylase) was performed after deparaffinization and rehydration. To monitor dopaminergic neurons by immunofluorescence (IF), dissected brains were embedded in agarose holders and sectioned with a vibratome. Thinly sliced tissues were treated with a blocking solution (normal donkey serum diluted 1:500 in 0.1% Triton X-100 PBS) for 1 h. Cells were incubated with anti-TH antibody (diluted 1:500) overnight at 4°C. Finally, cells were incubated with FITC-conjugated secondary antibody at 4°C for 2 h. Cells were washed three times with PBS, and coverslips were mounted using mounting solution (H-5501, Vector Laboratories), followed by analysis by fluorescence microscopy (Zeiss). […]

[1] = biological target: T2, synuclein mutant (Syn-A53T) (Homo sapiens, UniProt P37840, A53T); test: Insoluble/soluble synuclein fractionation by Western blot in SK-N-SH cells transfected with MT-Syn (Syn-A53T); assay type: cell-based; settings: treated for 24 h, pellet (insoluble) vs supernatant, FIG. 1B
T2 construct: FLAG; host or cells: SK-N-SH
Method: For SDS-PAGE, proteins were extracted from cells using RIPA buffer (50 mM Tris-Cl, pH 7.5, 150 mM NaCl, 1% NP-40, 0.1% SDS, and […] sodium deoxycholate). Samples were separated by SDS-PAGE and transferred to a PVDF membranes. The blotted membrane was blocked with 3% skim milk containing TBST buffer for 1 h and incubated with specific antibodies. Reacted antibodies were detected by ECL and X-ray film exposure. The antibody used in this experiment was pan-Syn (GTX112799), purchased from Genetex (California, USA). Actin antibody (66009-1-lg) and α-tubulin antibody (66240-1-lg) were obtained from Proteintech (Rosemont, IL, USA). Anti-FLAG (Sigma; F3165) from Sigma Aldrich (St, Louis, MO, USA) was used as a […], and HRP-conjugated goat anti-mouse, goat anti-rabbit, and mouse anti-goat antibodies (Pierce, Thermo Fisher Scientific, Inc., Rockford, IL, USA) were used. FLAG-Syn-WT and MT vectors were transfected into SK-N-SH cells for 24 h. […]
To identify the effect of the PRG-A compound on alpha-synuclein aggregation, the inventors transfected the FLAG-Syn-A30P vector into SK-N-SH cells for 24 h. […] Expression of synuclein was observed under a fluorescence microscope with a pan-Syn antibody (white arrow; high intensity of Syn).

In the case of `CC1(C)Oc2cc3oc(=O)ccc3cc2C[C@@H]1O` [Chem-001, decursinol], the “Aggregated synuclein (immunofluorescence)” value (Syn-A53T) is reported as “marginal effects”.

With `COc1cc(/C=C/C(=O)O[C@H]2Cc3cc4ccc(=O)oc4cc3OC2(C)C)ccc1O` [PRG-A-01, (S)-8,8-dimethyl-2-oxo-7,8-dihydro-2H,6H-pyrano[3,2-g]chromen-7-yl (E)-3-(4-hydroxy-3-methoxyphenyl)acrylate] the “cytotoxic effects (cell viability, MTT)” value (normal human fibroblasts) was “did not exhibit cytotoxic effects”.

`COc1cc(/C=C/CO[C@H]2Cc3cc4ccc(=O)oc4cc3OC2(C)C)ccc1O` [PRG-A-02, (S,E)-7-((3-(4-hydroxy-3-methoxyphenyl)allyl)oxy)-8,8-dimethyl-7,8-dihydro-2H,6H-pyrano[3,2-g]chromen-2-one] was tested, and the “cytotoxic effects (cell viability, MTT)” value (normal human fibroblasts) was “did not exhibit cytotoxic effects”.

For `CC1(C)Oc2cc3oc(=O)ccc3cc2C[C@@H]1OC(=O)/C=C/c1ccc(F)cc1` [PRG-A-03, (S)-8,8-dimethyl-2-oxo-7,8-dihydro-2H,6H-pyrano[3,2-g]chromen-7-yl (E)-3-(4-fluorophenyl)acrylate], the “phosphorylation of Tau in brain tissue” value (Syn^A53T-Tg mice; brain tissue of Syn-A53T Tg, FIG. 2C) was “suppresses phosphorylation of Tau”, the “Dopaminergic neuron markers (Tyrosine Hydroxylase, TH) in the substantia nigra (SN), IHC” value (Syn^A53T-Tg mice; intraperitoneal, 20 mg/kg or 40 mg/kg, 24 to 26 weeks, FIG. 2B) was “maintained” and the “impact on cell viability (MTT)” value (normal human fibroblasts; high doses (50 and 100 µM), cell type not given) was “low impact on cell viability”.

For `COc1cc(/C=C/CO[C@H]2Cc3cc4ccc(=O)oc4cc3OC2(C)C)ccc1[N+](=O)[O-]` [PRG-A-04, (S,E)-7-((3-(3-methoxy-4-nitrophenyl)allyl)oxy)-8,8-dimethyl-7,8-dihydro-2H,6H-pyrano[3,2-g]chromen-2-one], the insoluble synuclein [1] was “reduce insoluble synuclein in a dose-dependent manner”, the “loss of dopaminergic neurons in the SN by IF staining using TH” value (Syn^A53T-Tg mice; intraperitoneal, 20 mg/kg or 40 mg/kg, 24 to 26 weeks, FIG. 2D) was “prevents the loss of dopaminergic neurons” and the “cytotoxic effects (cell viability, MTT)” value (normal human fibroblasts) was “did not exhibit cytotoxic effects”.
